In patent US10626106B2, “Substituted pyrrolidine amides I” (Gruenenthal GmbH, priority 2017, dated 2020):

Each compound was assayed against T1, Human Glucocorticoid Receptor (hGR) (Homo sapiens, UniProt P04150) (assay: Human Glucocorticoid Receptor (hGR) Ligand-Binding Assay (competitive 3H-dexamethasone binding, IM9 cytosol)). Settings: compound at 1 μM; competition with 3H-dexamethasone; cytosol of IM9 cells; read-out: % inhibition hGR at 1 μM.
T1 construct: the resultant supernatant (=cytosol of IM9 cells) was centrifuged at 103,000 g for 60 minutes; host or cells: IM9 human lymphoblast cell line (cytosol fraction)
T1 sequence (P04150 1-777): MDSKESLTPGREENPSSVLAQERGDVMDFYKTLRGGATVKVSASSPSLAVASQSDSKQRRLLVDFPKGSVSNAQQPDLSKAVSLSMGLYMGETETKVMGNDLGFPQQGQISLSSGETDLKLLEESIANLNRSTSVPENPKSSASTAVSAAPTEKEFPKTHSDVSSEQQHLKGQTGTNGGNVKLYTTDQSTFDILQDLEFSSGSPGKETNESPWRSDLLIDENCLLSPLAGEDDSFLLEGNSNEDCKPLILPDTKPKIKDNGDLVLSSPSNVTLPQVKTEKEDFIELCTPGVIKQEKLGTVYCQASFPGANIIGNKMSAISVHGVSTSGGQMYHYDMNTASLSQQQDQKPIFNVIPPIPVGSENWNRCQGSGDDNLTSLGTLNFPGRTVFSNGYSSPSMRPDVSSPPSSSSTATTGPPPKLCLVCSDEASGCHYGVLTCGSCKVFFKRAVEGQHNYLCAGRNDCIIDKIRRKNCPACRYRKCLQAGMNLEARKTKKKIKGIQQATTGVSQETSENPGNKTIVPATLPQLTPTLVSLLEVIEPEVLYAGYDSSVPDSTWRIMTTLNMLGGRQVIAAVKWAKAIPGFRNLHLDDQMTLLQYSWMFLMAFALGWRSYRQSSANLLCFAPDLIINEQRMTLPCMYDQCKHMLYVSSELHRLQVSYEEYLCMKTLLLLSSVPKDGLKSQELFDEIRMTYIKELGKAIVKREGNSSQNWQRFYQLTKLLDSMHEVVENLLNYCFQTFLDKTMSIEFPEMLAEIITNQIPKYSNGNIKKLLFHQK
Text: Human Glucocorticoid Receptor (hGR) Ligand-Binding Assay
Potential selective glucocorticoid receptor modulators of this intervention can be tested for their binding affinity at the glucocorticoid receptor using the binding assay described below.
Preferably, the glucocortitcoid receptor extracted from cytosol of IM9 cells is used for competitive radioligand binding assays to calculate the IC50 values and binding affinity (Ki value) of the compounds according to the present invention. Preferably, a fixed concentration of the radioligand 3H-dexamethasone and a range of concentrations of compounds according to the present invention (as unlabeled competitors of dexamethasone) are mixed with the extracted glucocorticoid receptor in order to measure the potency/affinity with which they compete for the binding of the radioligand. Preferably, by using competition curves the IC50 which is the concentration of competing ligand that displaces 50% of the specific binding of the radioligand is determined. Finally this IC50 value is converted to a Ki value.
The human lymphoblast cell line IM9 (ATCC, Bethesda, Md.) were cultivated in RPMI 1640 media containing 10% fetal bovine serum, penicillin (100 U/ml), streptomycin (100 μg/ml), and 2 mM L-glutamine at […] and 7% CO2 in a humidified incubator. Cells were centrifuged for 10 minutes at 1500 g and were washed in PBS and repelleted. Cell were then resuspended in homogenization buffer consisting of: 10 mM TES, 10 mM sodium molybdate, 1 mM EDTA, pH 7.4, 20 mM 2-mercaptoethanol, and 10% glycerol. Disruption of the cells was performed by nitrogen cavitation using 2×15 minutes at 600 to 750 psi nitrogen in a N2 cavitator at 0° C. The cell preparation was then centrifuged at 27,000 g for 15 minutes, and the resultant supernatant (=cytosol of IM9 cells) was centrifuged at 103,000 g for 60 minutes at 4° C. The amount of protein in the supernatant fraction was determined using a BCA assay kit and aliquots were snap frozen in a dry ice-acetone bath and stored at −70° C. Competitive binding assays were done in duplicate in homogenization buffer with a total volume of 200 μl. To this end, 1 mg of IM9 cytosol, 0.05 μCi (1.5 nM) of 3H-dexamethasone […] and compounds according to the present invention (=unlabeled competitors of dexamethasone; range of concentrations) were mixed. The reaction was stopped after incubation at 0° C. for 16 to 18 hours by the addition of 100 μl of a charcoal-dextran mixture (2% activated charcoal, 0.5% dextran in 10 mM Tris, 1 mM EDTA, pH 7.4). Another incubation step at 0° C. for 10 minutes followed before the samples were centrifuged for 5 minutes at 8200 g. 100 μl of the supernatant) was finally assayed for radioactivity by liquid scintillationspectrometry, and the IC50 values were determined graphically and were converted to Ki values.

inhibition at 1 µM	SMILES
> 85%	Cc1cnc(C(=O)N[C@H]2CC(=O)N(c3ccc4c(cnn4-c4ccc(=O)n(C)c4)c3)[C@@H]2c2ccccc2)s1 (relative stereo) [Example 13, 5-methyl-N-(trans-1-(1-(1-methyl-6-oxo-1,6-dihydropyridin-3-yl)-1H-indazol-5-yl)-5-oxo-2-phenylpyrrolidin-3-yl)thiazole-2-carboxamide]
> 85%	COc1ccc(Cn2ncc3cc(N4C(=O)C[C@H](NC(=O)C(C)(F)F)[C@H]4c4ccccc4)ccc32)cn1 (relative stereo) [Example 33, trans-2,2-difluoro-N-(1-(1-((6-methoxypyridin-3-yl)methyl)-1H-indazol-5-yl)-5-oxo-2-phenylpyrrolidin-3-yl)propanamide]
> 85%	Cn1cc(-n2ncc3cc(N4C(=O)C[C@H](NC(=O)C(C)(F)F)C4c4ccc(F)cc4F)ccc32)ccc1=O (stereo in doubt) [Example 2, trans-2,2-difluoro-N-(5-oxo-2-(2,4-difluorophenyl)-1-(1-(1-methyl-6-oxo-1,6-dihydropyridin-3-yl)-1H-indazol-5-yl)pyrrolidin-3-yl)propanamide]
> 85%	Cn1cc(-n2ncc3cc(N4C(=O)C[C@H](NC(=O)C(C)(F)F)C4c4ccc5c(c4)OCCO5)ccc32)ccc1=O (stereo in doubt) [Example 3, trans-2,2-difluoro-N-(5-oxo-2-(2,3-dihydrobenzo[b][1,4]dioxin-6-yl)-1-(1-(1-methyl-6-oxo-1,6-dihydropyridin-3-yl)-1H-indazol-5-yl)pyrrolidin-3-yl)propanamide]
60 to 85%	COc1ccc(-n2ncc3cc(N4C(=O)C[C@H](NC(=O)C(C)(F)F)C4c4ccccc4)ccc32)cn1 (stereo in doubt) [Example 22, trans-2,2-difluoro-N-(1-(1-(6-methoxypyridin-3-yl)-1H-indazol-5-yl)-5-oxo-2-phenylpyrrolidin-3-yl)propanamide]
60 to 85%	Cn1ccc(Cn2ncc3cc(N4C(=O)C[C@H](NC(=O)C(C)(F)F)C4c4ccccc4)ccc32)n1 (stereo in doubt) [Example 32, trans-2,2-difluoro-N-(1-(1-((1-methyl-1H-pyrazol-3-yl)methyl)-1H-indazol-5-yl)-5-oxo-2-phenylpyrrolidin-3-yl)propanamide]
40 to 60%	Cn1cc(Cn2ncc3cc(N4C(=O)C[C@H](NC(=O)C(C)(F)F)C4c4ccccc4)ccc32)ccc1=O (stereo in doubt) [Example 34, trans-2,2-difluoro-N-(1-(1-((1-methyl-6-oxo-1,6-dihydropyridin-3-yl)methyl)-1H-indazol-5-yl)-5-oxo-2-phenylpyrrolidin-3-yl)propanamide]
60 to 85%	CC(F)(F)C(=O)N[C@H]1CC(=O)N(c2ccc3c(cnn3C3CCN(C(=O)C4CC4)CC3)c2)C1c1ccccc1 (stereo in doubt) [Example 35, trans-2,2-difluoro-N-(1-(1-(1-(cyclopropanecarbonyl)piperidin-4-yl)-1H-indazol-5-yl)-5-oxo-2-phenylpyrrolidin-3-yl)propanamide]
60 to 85%	Cn1ccc(Cn2ncc3cc(N4C(=O)C[C@H](NC(=O)C(C)(F)F)C4c4ccccc4)ccc32)cc1=O (stereo in doubt) [Example 38, trans-2,2-difluoro-N-(1-(1-((1-methyl-2-oxo-1,2-dihydropyridin-4-yl)methyl)-1H-indazol-5-yl)-5-oxo-2-phenylpyrrolidin-3-yl)propanamide]
40 to 60%	COc1cc(Cn2ncc3cc(N4C(=O)C[C@H](NC(=O)C5CC5)C4c4ccccc4)ccc32)ccn1 (stereo in doubt) [Example 40, trans-N-(1-(1-((2-methoxypyridin-4-yl)methyl)-1H-indazol-5-yl)-5-oxo-2-phenylpyrrolidin-3-yl)cyclopropanecarboxamide]
> 85%	Cn1cc(-n2ncc3cc(N4C(=O)C[C@H](NC(=O)C(C)(F)F)[C@H]4c4cccc(Cl)c4)ccc32)ccc1=O [Example 1, N-((2R,3S)-2-(3-chlorophenyl)-1-(1-(1-methyl-6-oxo-1,6-dihydropyridin-3-yl)-1H-indazol-5-yl)-5-oxopyrrolidin-3-yl)-2,2-difluoropropanamide]

Same assay, conditions: read-out: % inhibition hGR at 1 μM

SMILES	inhibition at 1 µM
CC(F)(F)C(=O)N[C@H]1CC(=O)N(c2ccc3c(cnn3-c3cccnc3)c2)C1c1ccccc1 (stereo in doubt) [Example 7, trans-2,2-difluoro-N-(5-oxo-2-phenyl-1-(1-(pyridin-3-yl)-1H-indazol-5-yl)pyrrolidin-3-yl)propanamide]	> 85%
CC(F)(F)C(=O)N[C@H]1CC(=O)N(c2ccc3c(cnn3-c3ccc(F)cn3)c2)C1c1ccccc1 (stereo in doubt) [Example 9, trans-2,2-difluoro-N-(1-(1-(5-fluoropyridin-2-yl)-1H-indazol-5-yl)-5-oxo-2-phenylpyrrolidin-3-yl)propanamide]	> 85%
CC(F)(F)C(=O)N[C@H]1CC(=O)N(c2ccc3c(cnn3-c3ccncc3)c2)C1c1ccccc1 (stereo in doubt) [Example 23, trans-2,2-difluoro-N-(5-oxo-2-phenyl-1-(1-(pyridin-4-yl)-1H-indazol-5-yl)pyrrolidin-3-yl)propanamide]	> 85%
Cc1ccc(-n2ncc3cc(N4C(=O)C[C@H](NC(=O)C(C)(F)F)C4c4ccccc4)ccc32)cn1 (stereo in doubt) [Example 24, trans-2,2-difluoro-N-(1-(1-(6-methylpyridin-3-yl)-1H-indazol-5-yl)-5-oxo-2-phenylpyrrolidin-3-yl)propanamide]	60 to 85%
Cc1cc(-n2ncc3cc(N4C(=O)C[C@H](NC(=O)C(C)(F)F)C4c4ccccc4)ccc32)ccn1 (stereo in doubt) [Example 25, trans-2,2-difluoro-N-(1-(1-(2-methylpyridin-4-yl)-1H-indazol-5-yl)-5-oxo-2-phenylpyrrolidin-3-yl)propanamide]	> 85%
COc1cc(-n2ncc3cc(N4C(=O)C[C@H](NC(=O)C(C)(F)F)C4c4ccccc4)ccc32)ccn1 (stereo in doubt) [Example 27, trans-2,2-difluoro-N-(1-(1-(2-methoxypyridin-4-yl)-1H-indazol-5-yl)-5-oxo-2-phenylpyrrolidin-3-yl)propanamide]	60 to 85%
Cn1cc(-n2ncc3cc(N4C(=O)C[C@H](NC(=O)C(C)(F)F)C4c4ccccc4)ccc32)cn1 (stereo in doubt) [Example 46, N-(trans-1-(1-(1-methyl-1H-pyrazol-4-yl)-1H-indazol-5-yl)-5-oxo-2-phenylpyrrolidin-3-yl)-2,2-difluoropropanamide]	> 85%
CC(F)(F)C(=O)N[C@H]1CC(=O)N(c2ccc3c(cnn3-c3ncc(F)cn3)c2)C1c1ccccc1 (stereo in doubt) [Example 47, N-(trans-1-(1-(5-fluoropyrimidin-2-yl)-1H-indazol-5-yl)-5-oxo-2-phenylpyrrolidin-3-yl)-2,2-difluoropropanamide]	60 to 85%
